# Reference: PubChem BioAssay AID1963972 (Molecular Pharmacology Branch, DTP, NCI, 2024)
# System: 945468-187-T-J2-PDC spheroids viability
# Assay: Anticancer human tumor 945468-187-T-J2-PDC patient-derived rectal carcinoma cell line growth inhibition [PI3K]
# Conditions: spheroids with HUVEC and MSC; for viability, T/C: stronger effect = lower value
# In short: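 We assembled tumor spheroids that included a stromal compartment of HUVEC and MSCs, then exposed them to targeted agents alone and together with PI3K pathway inhibitors. Concentration series descended by half-log from clinically achievable Cmax levels. Viability served as the endpoint.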
# [1] = curve of first compound, second compound 0.0316 µM
# [2] = curve of first compound, second compound 0.1 µM
# [3] = curve of first compound, second compound 0.316 µM
# [4] = curve of first compound, second compound 1 µM
# [5] = curve of first compound, second compound 3.16 µM
# [6] = curve of first compound, second compound 10 µM
# [7] = second compound 0.0316 µM, first compound 0.0316 µM
# [8] = second compound 0.0316 µM, first compound 0.1 µM
# [9] = second compound 0.0316 µM, first compound 0.316 µM
# [10] = second compound 0.0316 µM, first compound 1 µM
# [11] = second compound 0.0316 µM, first compound 3.16 µM
# [12] = second compound 0.0316 µM, first compound 10 µM
# [13] = second compound 0.1 µM, first compound 0.0316 µM
# [14] = second compound 0.1 µM, first compound 0.1 µM
# [15] = second compound 0.1 µM, first compound 0.316 µM
# [16] = second compound 0.1 µM, first compound 1 µM
# [17] = second compound 0.1 µM, first compound 3.16 µM
# [18] = second compound 0.1 µM, first compound 10 µM
# [19] = second compound 0.316 µM, first compound 0.0316 µM
# [20] = second compound 0.316 µM, first compound 0.1 µM
# [21] = second compound 0.316 µM, first compound 0.316 µM
# [22] = second compound 0.316 µM, first compound 1 µM
# [23] = second compound 0.316 µM, first compound 3.16 µM
# [24] = second compound 0.316 µM, first compound 10 µM
# [25] = second compound 1 µM, first compound 0.0316 µM
# [26] = second compound 1 µM, first compound 0.1 µM
# [27] = second compound 1 µM, first compound 0.316 µM
# [28] = second compound 1 µM, first compound 1 µM
# [29] = second compound 1 µM, first compound 3.16 µM
# [30] = second compound 1 µM, first compound 10 µM
# [31] = second compound 3.16 µM, first compound 0.0316 µM
# [32] = second compound 3.16 µM, first compound 0.1 µM
# [33] = second compound 3.16 µM, first compound 0.316 µM
# [34] = second compound 3.16 µM, first compound 1 µM
# [35] = second compound 3.16 µM, first compound 3.16 µM
# [36] = second compound 3.16 µM, first compound 10 µM
# [37] = second compound 10 µM, first compound 0.0316 µM
# [38] = second compound 10 µM, first compound 0.1 µM
# [39] = second compound 10 µM, first compound 0.316 µM
# [40] = second compound 10 µM, first compound 1 µM
# [41] = second compound 10 µM, first compound 3.16 µM
# [42] = second compound 10 µM, first compound 10 µM
# [43] = curve of first compound, second compound 0.00316 µM
# [44] = curve of first compound, second compound 0.01 µM
# [45] = second compound 0.00316 µM, first compound 0.0316 µM
# [46] = second compound 0.00316 µM, first compound 0.1 µM
# [47] = second compound 0.00316 µM, first compound 0.316 µM
# [48] = second compound 0.00316 µM, first compound 1 µM
# [49] = second compound 0.00316 µM, first compound 3.16 µM
# [50] = second compound 0.00316 µM, first compound 10 µM
# [51] = second compound 0.01 µM, first compound 0.0316 µM
# [52] = second compound 0.01 µM, first compound 0.1 µM
# [53] = second compound 0.01 µM, first compound 0.316 µM
# [54] = second compound 0.01 µM, first compound 1 µM
# [55] = second compound 0.01 µM, first compound 3.16 µM
# [56] = second compound 0.01 µM, first compound 10 µM
# 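Further: spheroids exposed to compounds for seven days before reading.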
smiles,measurement,setting,value
CC(C)NCC(C(=O)N1CCN(c2ncnc3c2C(C)CC3O)CC1)c1ccc(Cl)cc1 (configuration not stated) + CC(Nc1ncnc2nc[nH]c12)c1cc2cccc(Cl)c2c(=O)n1-c1ccccc1,IC50,[1],> 10 µM
same,IC50,[2],> 10 µM
same,IC50,[3],> 10 µM
same,IC50,[4],> 10 µM
same,IC50,[5],> 10 µM
same,IC50,[6],> 10 µM
same,"viability, T/C",[7],88.1%
same,"viability, T/C",[8],82%
same,"viability, T/C",[9],111%
same,"viability, T/C",[10],74.2%
same,"viability, T/C",[11],116%
same,"viability, T/C",[12],77.2%
same,"viability, T/C",[13],97.1%
same,"viability, T/C",[14],93.1%
same,"viability, T/C",[15],78%
same,"viability, T/C",[16],84%
same,"viability, T/C",[17],89.7%
same,"viability, T/C",[18],77.7%
same,"viability, T/C",[19],86.4%
same,"viability, T/C",[20],76.6%
same,"viability, T/C",[21],107%
same,"viability, T/C",[22],97.5%
same,"viability, T/C",[23],100%
same,"viability, T/C",[24],76.9%
same,"viability, T/C",[25],69.1%
same,"viability, T/C",[26],97.6%
same,"viability, T/C",[27],86.4%
same,"viability, T/C",[28],106%
same,"viability, T/C",[29],92.6%
same,"viability, T/C",[30],67.9%
same,"viability, T/C",[31],80.8%
same,"viability, T/C",[32],75.3%
same,"viability, T/C",[33],77%
same,"viability, T/C",[34],116%
same,"viability, T/C",[35],84.7%
same,"viability, T/C",[36],76.9%
same,"viability, T/C",[37],93.7%
same,"viability, T/C",[38],96.1%
same,"viability, T/C",[39],86.2%
same,"viability, T/C",[40],103%
same,"viability, T/C",[41],90.4%
same,"viability, T/C",[42],81%
CNC(=O)c1ccc(N2C(=S)N(c3ccc(C#N)c(C(F)(F)F)c3)C(=O)C2(C)C)cc1F + CC(Nc1ccc2c(c1)OCCn1cc(N3C(=O)OCC3C(F)F)nc1-2)C(N)=O,IC50,[43],> 10 µM
same,IC50,[44],> 10 µM
same,IC50,[1],> 10 µM
same,IC50,[2],> 10 µM
same,IC50,[3],> 10 µM
same,IC50,[4],> 10 µM
same,"viability, T/C",[45],96.3%
same,"viability, T/C",[46],84.8%
same,"viability, T/C",[47],123%
same,"viability, T/C",[48],95%
same,"viability, T/C",[49],83.4%
same,"viability, T/C",[50],80.1%
same,"viability, T/C",[51],95.5%
same,"viability, T/C",[52],82%
same,"viability, T/C",[53],85.4%
same,"viability, T/C",[54],103%
same,"viability, T/C",[55],96.8%
same,"viability, T/C",[56],84.4%
same,"viability, T/C",[7],93.9%
same,"viability, T/C",[8],78.2%
same,"viability, T/C",[9],102%
same,"viability, T/C",[10],103%
same,"viability, T/C",[11],99.4%
same,"viability, T/C",[12],90.3%
same,"viability, T/C",[13],103%
same,"viability, T/C",[14],124%
same,"viability, T/C",[15],96.4%
same,"viability, T/C",[16],92.5%
same,"viability, T/C",[17],86.5%
same,"viability, T/C",[18],76%
same,"viability, T/C",[19],91%
same,"viability, T/C",[20],95.5%
same,"viability, T/C",[21],88.6%
same,"viability, T/C",[22],88.6%
same,"viability, T/C",[23],89.1%
same,"viability, T/C",[24],71.6%
same,"viability, T/C",[25],84.4%
same,"viability, T/C",[26],88.6%
same,"viability, T/C",[27],86.7%
same,"viability, T/C",[28],87.4%
same,"viability, T/C",[29],64.4%
same,"viability, T/C",[30],79.6%
C[C@@H](NC(=O)c1ncnc(N)c1Cl)c1ncc(C(=O)Nc2cc(C(F)(F)F)c(Cl)cn2)s1 + CC(Nc1ncnc2nc[nH]c12)c1cc2cccc(Cl)c2c(=O)n1-c1ccccc1,IC50,[1],> 10 µM
same,IC50,[2],> 10 µM
same,IC50,[3],> 10 µM
same,IC50,[4],> 10 µM
same,IC50,[5],> 10 µM
same,IC50,[6],> 10 µM
same,"viability, T/C",[7],83.6%
same,"viability, T/C",[8],82.8%
same,"viability, T/C",[9],113%
same,"viability, T/C",[10],106%
same,"viability, T/C",[11],109%
same,"viability, T/C",[12],86.2%
same,"viability, T/C",[13],119%
same,"viability, T/C",[14],108%
same,"viability, T/C",[15],85.5%
same,"viability, T/C",[16],68.7%
same,"viability, T/C",[17],121%
same,"viability, T/C",[18],104%
same,"viability, T/C",[19],119%
same,"viability, T/C",[20],90.9%
same,"viability, T/C",[21],99.3%
same,"viability, T/C",[22],92.2%
same,"viability, T/C",[23],93.3%
same,"viability, T/C",[24],80.7%
same,"viability, T/C",[25],92.7%
same,"viability, T/C",[26],108%
same,"viability, T/C",[27],81.3%
same,"viability, T/C",[28],95%
same,"viability, T/C",[29],83.1%
same,"viability, T/C",[30],90.1%
same,"viability, T/C",[31],103%
same,"viability, T/C",[32],110%
same,"viability, T/C",[33],77.7%
same,"viability, T/C",[34],124%
same,"viability, T/C",[35],110%
same,"viability, T/C",[36],104%
same,"viability, T/C",[37],83%
same,"viability, T/C",[38],123%
same,"viability, T/C",[39],110%
same,"viability, T/C",[40],84.4%
same,"viability, T/C",[41],119%
same,"viability, T/C",[42],108%
CC(Nc1ncnc2nc[nH]c12)c1cc2cccc(Cl)c2c(=O)n1-c1ccccc1 (configuration not stated),"viability, T/C",compound 0.1 µM,91.9% [middle of 8 runs]
same,"viability, T/C",compound 0.316 µM,96.3% [middle of 8 runs]
same,"viability, T/C",compound 10 µM,103% [middle of 8 runs]
same,IC50,"compound alone, run of 04/25/2023",> 10 µM
CC1(C)CCC(CN2CCN(c3ccc(C(=O)NS(=O)(=O)c4ccc(NCC5CCOCC5)c([N+](=O)[O-])c4)c(Oc4cnc5[nH]ccc5c4)c3)CC2)=C(c2ccc(Cl)cc2)C1 + CC(Nc1ccc2c(c1)OCCn1cc(N3C(=O)OCC3C(F)F)nc1-2)C(N)=O,IC50,[43],7.88 µM
same,IC50,[44],> 10 µM
same,IC50,[1],7.6 µM
same,IC50,[2],7.73 µM
same,IC50,[3],6.74 µM
same,IC50,[4],> 10 µM
same,"viability, T/C",[45],113%
same,"viability, T/C",[46],100%
same,"viability, T/C",[47],96.6%
same,"viability, T/C",[48],118%
same,"viability, T/C",[49],93.2%
same,"viability, T/C",[50],38.8%
same,"viability, T/C",[51],94.2%
same,"viability, T/C",[52],104%
same,"viability, T/C",[53],118%
same,"viability, T/C",[54],98.3%
same,"viability, T/C",[55],89.4%
same,"viability, T/C",[56],51.7%
same,"viability, T/C",[7],96.1%
same,"viability, T/C",[8],113%
same,"viability, T/C",[9],95.3%
same,"viability, T/C",[10],88.9%
same,"viability, T/C",[11],101%
same,"viability, T/C",[12],34.6%
same,"viability, T/C",[13],98.9%
same,"viability, T/C",[14],92.2%
same,"viability, T/C",[15],92.4%
same,"viability, T/C",[16],92.5%
same,"viability, T/C",[17],98.6%
same,"viability, T/C",[18],37.1%
same,"viability, T/C",[19],88.1%
same,"viability, T/C",[20],89%
same,"viability, T/C",[21],84.3%
same,"viability, T/C",[22],89.6%
same,"viability, T/C",[23],83.1%
same,"viability, T/C",[24],32.7%
same,"viability, T/C",[25],69.2%
same,"viability, T/C",[26],81.7%
same,"viability, T/C",[27],94.8%
same,"viability, T/C",[28],66%
same,"viability, T/C",[29],77.8%
same,"viability, T/C",[30],52.3%
